According to publication PMC11801377, “A uniquely efficacious type of CFTR corrector with complementary mode of action” (Science Advances, 2024):

Target: F508del-CFTR (Homo sapiens, UniProt P13569, DEL508-508)
Assay: Halide-sensitive YFP quenching assay in U2OS-F508del-CFTR-YFP cells
Assay type: cell-based
Set-up: host or cells: U2OS (PathHunter U2OS-F508del-CFTR MEM-EA)
Settings: overnight treatment; acute forskolin and IVA 2 nM
Protocol: U2OS-F508del-CFTR cells expressing Topaz-YFP F46L/H148Q/I152L were seeded at 20,000 cells per well into 384-well black clear-bottom plates in 40 μl per well growth medium (Mc COY’s 5A, Gibco, 10% FBS, penicillin/streptomycin), containing the various CFTR correctors at the indicated concentrations. The cells were coincubated with the compounds for 24 hours (37°C, 5% CO2). The next day, plates were washed twice with PBS^+ (55 μl per well; PBS containing 0.9 mM Ca^2+ and 0.5 mM Mg^2+). PBS^+ was fully removed, and cells were supplemented with 15 μl PBS^+. Then, 5 μl of 4× concentrated stocks of IVA or vehicle in dilution buffer [PBS^+, 0.1 μM forskolin, and 0.2% bovine serum albumin (fatty acid free) (pH 7.4)] were added and incubated for 30 min in the dark. For experiments with I-172 (Sigma- Aldrich), the inhibitor was added to the mix with either IVA or vehicle to reach a final concentration in cells of 20 μM. Then, plates were transferred to the FLIPR Tetra (fluorescence imaging plate reader; Molecular Devices: excitation: 470 to 495 nm; emission: 526 to 585 nm), baseline fluorescence reading of the YFP signal was performed for 6 s (10 × 0.6 s intervals) after which 25 μl of iodide buffer [137 mM NaI, 2.7 mM KCl, 1.5 mM KH2PO4, 8.1 mM Na2HPO4, 1 mM CaCl2, and 0.5 mM MgCl2 (pH 7.4)] was added, and fluorescence reading was continued for 70 s (50 × 0.6 s intervals; 20 x 2 s intervals) to assess YFP quenching through CFTR-mediated iodide influx. For analysis, fluorescence traces were aligned and normalized at the last time point before iodide addition (normalized fluorescence = 1). Normalized fluorescence values obtained 20 s after the beginning of the assay were used to assess the degree of YFP quenching, i.e., CFTR function (see fig. S1J). […] Then, plates were read and analyzed as above. […] Then, plates were transferred to the FLIPR Tetra and read and analyzed as above.

F508del-CFTR, sequence (P13569 with tags, fused parts or gaps DEL508-508): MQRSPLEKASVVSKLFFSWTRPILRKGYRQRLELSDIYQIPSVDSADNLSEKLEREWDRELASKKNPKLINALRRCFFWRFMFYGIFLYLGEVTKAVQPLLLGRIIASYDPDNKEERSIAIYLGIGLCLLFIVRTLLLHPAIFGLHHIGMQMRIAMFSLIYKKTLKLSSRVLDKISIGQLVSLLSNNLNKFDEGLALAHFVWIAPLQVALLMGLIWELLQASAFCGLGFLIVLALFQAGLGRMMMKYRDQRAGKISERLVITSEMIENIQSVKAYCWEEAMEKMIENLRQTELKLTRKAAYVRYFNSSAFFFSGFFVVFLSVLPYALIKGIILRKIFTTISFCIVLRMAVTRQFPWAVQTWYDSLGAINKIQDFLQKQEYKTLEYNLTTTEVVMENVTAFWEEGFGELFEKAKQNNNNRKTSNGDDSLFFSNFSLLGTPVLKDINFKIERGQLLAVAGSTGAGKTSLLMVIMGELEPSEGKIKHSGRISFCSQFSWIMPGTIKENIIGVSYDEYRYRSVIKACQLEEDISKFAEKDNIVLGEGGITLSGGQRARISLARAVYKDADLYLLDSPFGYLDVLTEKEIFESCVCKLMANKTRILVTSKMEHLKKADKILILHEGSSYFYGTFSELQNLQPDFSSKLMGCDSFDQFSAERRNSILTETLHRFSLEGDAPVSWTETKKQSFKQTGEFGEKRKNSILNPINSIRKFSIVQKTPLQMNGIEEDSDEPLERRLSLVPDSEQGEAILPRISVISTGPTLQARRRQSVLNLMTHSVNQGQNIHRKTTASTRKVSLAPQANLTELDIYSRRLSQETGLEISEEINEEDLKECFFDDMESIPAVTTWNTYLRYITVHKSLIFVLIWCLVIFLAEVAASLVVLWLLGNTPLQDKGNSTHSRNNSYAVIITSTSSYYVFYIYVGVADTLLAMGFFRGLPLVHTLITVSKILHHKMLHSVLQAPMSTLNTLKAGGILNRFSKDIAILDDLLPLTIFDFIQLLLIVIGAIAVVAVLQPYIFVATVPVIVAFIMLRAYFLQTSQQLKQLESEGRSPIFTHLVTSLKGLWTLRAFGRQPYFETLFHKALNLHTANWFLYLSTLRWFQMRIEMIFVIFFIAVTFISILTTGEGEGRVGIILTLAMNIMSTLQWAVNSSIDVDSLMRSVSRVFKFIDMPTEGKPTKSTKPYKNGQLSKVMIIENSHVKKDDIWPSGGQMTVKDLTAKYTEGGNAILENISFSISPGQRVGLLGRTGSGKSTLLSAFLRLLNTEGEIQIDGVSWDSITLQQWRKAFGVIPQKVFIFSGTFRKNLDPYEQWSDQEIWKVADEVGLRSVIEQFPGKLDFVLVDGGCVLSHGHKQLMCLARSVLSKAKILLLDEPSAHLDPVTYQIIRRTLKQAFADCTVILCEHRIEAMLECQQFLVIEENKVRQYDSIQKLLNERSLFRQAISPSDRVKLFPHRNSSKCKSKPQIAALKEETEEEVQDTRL

COc1cc(CCNC(=O)C2CC(=O)N(C)C(CC(C)C)C(=O)N3CCCCC3C(=O)NC(Cc3ccccc3)COc3ccc4ncc(F)cc4c3C(=O)N2)on1 (stereo not shown) [IDOR-3]
F508del-CFTR function (YFP quenching): strongly increased F508del-CFTR function
